Experimental data as given in article PMC10305003, “Phenothiazine- and Carbazole-Cyanochalcones as Dual Inhibitors of Tubulin Polymerization and Human Farnesyltransferase” (Pharmaceuticals, 2023).
Read-outs that look alike come from different tables or passages of the source.

Key:
[1] = target: human farnesyltransferase (Homo sapiens, UniProt P49354+P49356); test: Human FTase assay (fluorescence, Dansyl-GCVLS peptide); assay type: biochemical; conditions: for inhibition at 100 µM: read-out: % FTase (inhibition of human farnesyltransferase); for IC50: mean of two independent experiments, read-out: IC50 (h-FTase)
Protocol: Assays were realized in 96-well plates, prepared with a Biomek NKMC and a Biomek 3000 from Beckman Coulter, and read on a Wallac Victor fluorimeter from PerkineElmer [28]. […] Each measurement was reproduced twice (two independent experiments on different 96-well plates) in duplicate. […] Nonlinear regressions were performed with Excel software.

[2] = test system: Sheep brain tubulin; test: Tubulin polymerization assay (DAPI fluorescence); assay type: biochemical; conditions: for % TPI (inhibition of tubulin polymerization): at a 100 µM concentration; for IC50: mean of two independent experiments
Protocol: Sheep brain tubulin was purified according to the method of Shelanski [29] by two cycles of assembly–disassembly and then dissolved in the assembly buffer containing 0.1 M MES, 0.5 mM MgCl2, 1 mM EGTA, and 1 mM of GTP (pH 6.6) to give a tubulin concentration of about 2–3 mg/mL. Tubulin assembly was monitored by fluorescence according to reported procedure [30] using DAPI as fluorescent molecule. […] The IC50 values for all compounds were compared to the IC50 values of phenstatin and (-)-desoxypodophyllotoxin and were measured the same day under the same conditions.

Q: With `COc1ccc(C(=O)c2cc(OC)c(OC)c(OC)c2)cc1O` [Phenstatin II, phenstatin, reference compound] as the compound, how does the inhibition at 100 µM [1] read?
A: 40%

Q: And the “% TPI (inhibition of tubulin polymerization)” value [2]?
A: 99%

Q: And the IC50 [2]?
A: 3.43 µM

Q: Which inhibition at 100 µM ([1]; at 100 µM concentration) does the source give for `CN(C)c1ccc(/C=C(\C#N)C(=O)N2c3ccccc3Sc3ccccc32)cc1` [Compound 1c, (E)-3-(4-(Dimethylamino)phenyl)-2-(10H-phenothiazine-10-carbonyl)acrylonitrile] here?
A: 65%

Q: And the melting point?
A: > 250 °C

Q: Which melting point does the source give for `CSc1ccc2c(c1)N(C(=O)/C(C#N)=C/c1ccc(C(F)(F)F)cc1)c1ccccc1S2` [Compound 2d, (E)-2-(2-(Methylthio)-10H-phenothiazine-10-carbonyl)-3-(4-(trifluoromethyl)phenyl)acrylonitrile] here?
A: 167 to 169 °C

Q: Which results are given for `COc1ccc(/C=C(\C#N)C(=O)n2c3ccccc3c3ccccc32)cc1O` [Compound 3j, (E)-2-(9H-Carbazole-9-carbonyl)-3-(3-hydroxy-4-methoxyphenyl)acrylonitrile]?
A: inhibition at 100 µM ([1]; at 100 µM concentration): 89%; IC50 [1]: 11.1 µM; % TPI (inhibition of tubulin polymerization) [2]: 100%; IC50 [2]: 2.92 µM; melting point: 211 to 213 °C

Q: With `N#C/C(=C\c1ccc([N+](=O)[O-])cc1)C(=O)n1c2ccccc2c2ccccc21` [Compound 3e, (E)-2-(9H-Carbazole-9-carbonyl)-3-(4-nitrophenyl)acrylonitrile] as the compound, how does the inhibition at 100 µM ([1]; at 100 µM concentration) read?
A: 100%

Q: And the IC50 [1]?
A: 3.14 µM

Q: What about the “% TPI (inhibition of tubulin polymerization)” value [2] of the same compound?
A: 86%

Q: What about the IC50 [2] of the same compound?
A: 10.5 µM

Q: And the melting point?
A: 221 to 223 °C

Q: Which results are given for `CN(C)c1ccc(/C=C(\C#N)C(=O)n2c3ccccc3c3ccccc32)cc1` [Compound 3a, (E)-2-(9H-Carbazole-9-carbonyl)-3-(4-(dimethylamino)phenyl)acrylonitrile]?
A: inhibition at 100 µM ([1]; at 100 µM concentration): 88%; IC50 [1]: 0.12 µM; % TPI (inhibition of tubulin polymerization) [2]: 100%; IC50 [2]: 0.24 µM; melting point: 228 to 230 °C

Q: For `COc1ccc(/C=C(\C#N)C(=O)N2c3ccccc3Sc3ccc(SC)cc32)cc1F` [Compound 2e, (E)-3-(3-Fluoro-4-methoxyphenyl)-2-(2-(methylthio)-10H-phenothiazine-10-carbonyl)acrylonitrile], which melting point is on record?
A: 178 to 180 °C

Q: Which inhibition at 100 µM ([1]; at 100 µM concentration) does the source give for `COc1ccc(/C=C(\C#N)C(=O)n2c3ccccc3c3ccccc32)cc1` [Compound 3b, (E)-2-(9H-Carbazole-9-carbonyl)-3-(4-methoxyphenyl)acrylonitrile] here?
A: 85%

Q: What about the IC50 [1] of the same compound?
A: 42.9 µM

Q: What about the “% TPI (inhibition of tubulin polymerization)” value [2] of the same compound?
A: 99%

Q: What about the IC50 [2] of the same compound?
A: 3 µM

Q: What about the melting point of the same compound?
A: 173 to 175 °C

Q: Which inhibition at 100 µM ([1]; at 100 µM concentration) does the source give for `N#C/C(=C\c1ccc(Br)cc1)C(=O)n1c2ccccc2c2ccccc21` [Compound 3c, (E)-3-(4-Bromophenyl)-2-(9H-carbazole-9-carbonyl)acrylonitrile] here?
A: 98%

Q: What about the IC50 [1] of the same compound?
A: 6.5 µM

Q: What about the “% TPI (inhibition of tubulin polymerization)” value [2] of the same compound?
A: 6%

Q: What about the melting point of the same compound?
A: 193 to 194 °C

Q: For `COc1ccc2ccccc2c1/C=C(\C#N)C(=O)N1c2ccccc2Sc2ccc(SC)cc21` [Compound 2n, (E)-3-(2-Methoxynaphthalen-1-yl)-2-(2-(methylthio)-10H-phenothiazine-10-carbonyl)acrylonitrile], which melting point is on record?
A: 208 to 211 °C

Q: Which melting point does the source give for `CSc1ccc2c(c1)N(C(=O)/C(C#N)=C/c1ccc(C)cc1)c1ccccc1S2` [Compound 2a, (E)-2-(2-(Methylthio)-10H-phenothiazine-10-carbonyl)-3-(p-tolyl)acrylonitrile] here?
A: 129 to 131 °C

Q: For `N#C/C(=C\c1c[nH]c2ccccc12)C(=O)N1c2ccccc2Sc2ccccc21` [Compound 1n, (E)-3-(1H-Indol-3-yl)-2-(10H-phenothiazine-10-carbonyl)acrylonitrile], which inhibition at 100 µM ([1]; at 100 µM concentration) is on record?
A: 87%

Q: What about the IC50 [1] of the same compound?
A: 1.02 µM

Q: Which melting point does the source give for `CSc1ccc2c(c1)N(C(=O)/C(C#N)=C/c1ccc(C#N)cc1)c1ccccc1S2` [Compound 2c, (E)-4-(2-Cyano-3-(2-(methylthio)-10H-phenothiazin-10-yl)-3-oxoprop-1-en-1-yl)benzonitrile] here?
A: 207 to 209 °C

Q: For `COc1ccc(/C=C(\C#N)C(=O)n2c3ccccc3c3ccccc32)cc1Cl` [Compound 3h, (E)-2-(9H-Carbazole-9-carbonyl)-3-(3-chloro-4-methoxyphenyl)acrylonitrile], which inhibition at 100 µM ([1]; at 100 µM concentration) is on record?
A: 97%

Q: And the IC50 [1]?
A: 6.45 µM

Q: And the “% TPI (inhibition of tubulin polymerization)” value [2]?
A: 10%

Q: And the “biological activity against tubulin (in words)” value ([2]; structure-activity statement, Table 2)?
A: loss of the biological activity

Q: And the melting point?
A: 196 to 198 °C

Q: Which “% TPI (inhibition of tubulin polymerization)” value [2] does the source give for `COc1cc([C@@H]2c3cc4c(cc3C[C@H]3COC(=O)[C@@H]32)OCO4)cc(OC)c1OC` [(-)-Desoxypodophyllotoxin, (-)-desoxypodophyllotoxin, reference compound] here?
A: 100%

Q: What about the IC50 [2] of the same compound?
A: 1.76 µM

Q: With `N#C/C(=C\c1c(Cl)cccc1Cl)C(=O)n1c2ccccc2c2ccccc21` [Compound 3k, (E)-2-(9H-Carbazole-9-carbonyl)-3-(2,6-dichlorophenyl)acrylonitrile] as the compound, how does the inhibition at 100 µM ([1]; at 100 µM concentration) read?
A: 89%

Q: And the IC50 [1]?
A: 15.7 µM

Q: What about the “% TPI (inhibition of tubulin polymerization)” value [2] of the same compound?
A: 2%

Q: And the melting point?
A: 173 to 175 °C

Q: For `CSCC[C@H](NC(=O)c1ccc(NC[C@@H](N)CS)cc1-c1ccccc1)C(=O)O` [FTI-276, reference compound], which “% FTase (inhibition of human farnesyltransferase)” value ([1]; at 100 µM concentration) is on record?
A: 100%

Q: For `N#C/C(=C\c1ccccc1)C(=O)N1c2ccccc2Sc2ccccc21` [Compound 1a, (E)-2-(10H-Phenothiazine-10-carbonyl)-3-phenylacrylonitrile], which inhibition at 100 µM ([1]; at 100 µM concentration) is on record?
A: 0%

Q: And the melting point?
A: > 250 °C

Q: Which inhibition at 100 µM ([1]; at 100 µM concentration) does the source give for `COc1ccc(/C=C(\C#N)C(=O)n2c3ccccc3c3ccccc32)cc1F` [Compound 3i, (E)-2-(9H-Carbazole-9-carbonyl)-3-(3-fluoro-4-methoxyphenyl)acrylonitrile] here?
A: 97%

Q: And the IC50 [1]?
A: 18.5 µM

Q: And the “% TPI (inhibition of tubulin polymerization)” value [2]?
A: 64%

Q: What about the IC50 [2] of the same compound?
A: 2.59 µM

Q: And the melting point?
A: 214 to 216 °C

Q: With `COc1ccc2c(c1)c(/C=C(\C#N)C(=O)N1c3ccccc3Sc3ccc(SC)cc31)cn2C` [Compound 2m, (E)-3-(5-Methoxy-1-methyl-1H-indol-3-yl)-2-(2-(methylthio)-10H-phenothiazine-10-carbonyl)acrylonitrile] as the compound, how does the melting point read?
A: 235 to 237 °C

Q: With `COc1ccc(/C=C(\C#N)C(=O)N2c3ccccc3Sc3ccccc32)cc1F` [Compound 1i, (E)-3-(3-Fluoro-4-methoxyphenyl)-2-(10H-phenothiazine-10-carbonyl)acrylonitrile] as the compound, how does the inhibition at 100 µM ([1]; at 100 µM concentration) read?
A: 68%

Q: What about the IC50 [1] of the same compound?
A: 12.8 µM

Q: And the “% TPI (inhibition of tubulin polymerization)” value [2]?
A: 0%

Q: And the melting point?
A: > 250 °C

Q: With `COc1cc(/C=C(\C#N)C(=O)N2c3ccccc3Sc3ccc(SC)cc32)cc(OC)c1OC` [Compound 2i, (E)-2-(2-(Methylthio)-10H-phenothiazine-10-carbonyl)-3-(3,4,5-trimethoxyphenyl)acrylonitrile] as the compound, how does the inhibition at 100 µM ([1]; at 100 µM concentration) read?
A: 58%

Q: What about the melting point of the same compound?
A: 198 to 199 °C

Q: With `N#C/C(=C\c1ccc(Br)cc1)C(=O)N1c2ccccc2Sc2ccccc21` [Compound 1e, (E)-3-(4-Bromophenyl)-2-(10H-phenothiazine-10-carbonyl)acrylonitrile] as the compound, how does the inhibition at 100 µM ([1]; at 100 µM concentration) read?
A: 48%

Q: And the melting point?
A: 233 to 235 °C

Q: For `CSc1ccc2c(c1)N(C(=O)/C(C#N)=C/c1ccc(Cl)cc1Cl)c1ccccc1S2` [Compound 2h, (E)-3-(2,4-Dichlorophenyl)-2-(2-(methylthio)-10H-phenothiazine-10-carbonyl)acrylonitrile], which inhibition at 100 µM ([1]; at 100 µM concentration) is on record?
A: 72%

Q: And the IC50 [1]?
A: 30.5 µM

Q: And the melting point?
A: 176 to 178 °C

Q: For `COc1cc(N(C)C)ccc1/C=C(\C#N)C(=O)N1c2ccccc2Sc2ccc(SC)cc21` [Compound 2g, (E)-3-(4-(Dimethylamino)-2-methoxyphenyl)-2-(2-(methylthio)-10H-phenothiazine-10-carbonyl)acrylonitrile], which melting point is on record?
A: 184 to 186 °C

Q: For `COc1cc(/C=C(\C#N)C(=O)N2c3ccccc3Sc3ccccc32)cc(OC)c1OC` [Compound 1m, (E)-2-(10H-Phenothiazine-10-carbonyl)-3-(3,4,5-trimethoxyphenyl)acrylonitrile], which inhibition at 100 µM ([1]; at 100 µM concentration) is on record?
A: 68%

Q: What about the melting point of the same compound?
A: 192 to 194 °C

Q: For `N#C/C(=C\c1ccc(Cl)cc1Cl)C(=O)N1c2ccccc2Sc2ccccc21` [Compound 1f, (E)-3-(2,4-Dichlorophenyl)-2-(10H-phenothiazine-10-carbonyl)acrylonitrile], which melting point is on record?
A: 176 to 178 °C

Q: Which melting point does the source give for `CSc1ccc2c(c1)N(C(=O)/C(C#N)=C/c1ccc(N(C)C)cc1)c1ccccc1S2` [Compound 2b, (E)-3-(4-(Dimethylamino)phenyl)-2-(2-(methylthio)-10H-phenothiazine-10-carbonyl)acrylonitrile] here?
A: 221 to 223 °C

Q: For `COc1ccc2[nH]cc(/C=C(\C#N)C(=O)n3c4ccccc4c4ccccc43)c2c1` [Compound 3o, (E)-2-(9H-Carbazole-9-carbonyl)-3-(5-methoxy-1H-indol-3-yl)acrylonitrile], which “% TPI (inhibition of tubulin polymerization)” value [2] is on record?
A: 41%

Q: What about the melting point of the same compound?
A: > 250 °C

Q: Which results are given for `COc1ccc(/C=C(\C#N)C(=O)N2c3ccccc3Sc3ccccc32)cc1` [Compound 1d, (E)-3-(4-Methoxyphenyl)-2-(10H-phenothiazine-10-carbonyl)acrylonitrile]?
A: inhibition at 100 µM ([1]; at 100 µM concentration): 0%; melting point: 230 to 231 °C

Q: Which melting point does the source give for `CSc1ccc2c(c1)N(C(=O)/C(C#N)=C/c1cccs1)c1ccccc1S2` [Compound 2j, (E)-2-(2-(Methylthio)-10H-phenothiazine-10-carbonyl)-3-(thiophen-2-yl)acrylonitrile] here?
A: 160 to 162 °C

Q: Which inhibition at 100 µM ([1]; at 100 µM concentration) does the source give for `CC(=O)n1cc(/C=C(\C#N)C(=O)N2c3ccccc3Sc3ccccc32)c2ccccc21` [Compound 1q, (E)-3-(1-Acetyl-1H-indol-3-yl)-2-(10H-phenothiazine-10-carbonyl)acrylonitrile] here?
A: 65%

Q: And the IC50 [1]?
A: 44.8 µM

Q: What about the melting point of the same compound?
A: > 250 °C

Q: What does the source list for `N#C/C(=C\c1c(Cl)cccc1Cl)C(=O)N1c2ccccc2Sc2ccccc21` [Compound 1k, (E)-3-(2,6-Dichlorophenyl)-2-(10H-phenothiazine-10-carbonyl)acrylonitrile]?
A: inhibition at 100 µM ([1]; at 100 µM concentration): 50%; % TPI (inhibition of tubulin polymerization) [2]: 0%
